23 molecules from US12454531B2, “Substituted piperazine derivatives useful as T cell activators” (BRISTOL-MYERS SQUIBB COMPANY, priority 2019, dated 2025) can be followed below.

Sequence of DGKζ (Q13574 other isoform, or with tags, fused parts or gaps): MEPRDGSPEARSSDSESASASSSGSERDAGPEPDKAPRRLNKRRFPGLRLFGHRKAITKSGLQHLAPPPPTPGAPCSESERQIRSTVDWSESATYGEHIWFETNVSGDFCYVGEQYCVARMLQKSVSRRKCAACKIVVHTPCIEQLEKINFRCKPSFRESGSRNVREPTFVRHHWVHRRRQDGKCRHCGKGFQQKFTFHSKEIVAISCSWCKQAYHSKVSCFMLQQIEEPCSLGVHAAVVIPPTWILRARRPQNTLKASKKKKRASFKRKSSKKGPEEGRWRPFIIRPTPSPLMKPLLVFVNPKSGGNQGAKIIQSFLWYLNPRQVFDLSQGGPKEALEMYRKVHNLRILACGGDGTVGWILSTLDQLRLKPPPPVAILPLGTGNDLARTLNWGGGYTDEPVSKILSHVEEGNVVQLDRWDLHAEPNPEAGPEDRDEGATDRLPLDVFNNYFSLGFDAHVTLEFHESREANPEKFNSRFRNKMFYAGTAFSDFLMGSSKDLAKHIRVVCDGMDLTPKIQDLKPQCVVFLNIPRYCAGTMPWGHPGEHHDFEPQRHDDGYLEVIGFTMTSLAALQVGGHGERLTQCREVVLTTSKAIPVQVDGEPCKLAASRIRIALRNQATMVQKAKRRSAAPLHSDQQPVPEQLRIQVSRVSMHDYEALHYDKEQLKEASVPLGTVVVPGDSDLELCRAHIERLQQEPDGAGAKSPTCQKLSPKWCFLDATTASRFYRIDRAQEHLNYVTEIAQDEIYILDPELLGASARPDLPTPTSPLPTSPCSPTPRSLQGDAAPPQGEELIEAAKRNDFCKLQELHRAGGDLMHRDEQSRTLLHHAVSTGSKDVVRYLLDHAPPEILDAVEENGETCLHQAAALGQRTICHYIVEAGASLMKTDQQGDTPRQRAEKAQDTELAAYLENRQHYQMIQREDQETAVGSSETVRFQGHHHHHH
Sequence of DGKα (P23743 whole entry): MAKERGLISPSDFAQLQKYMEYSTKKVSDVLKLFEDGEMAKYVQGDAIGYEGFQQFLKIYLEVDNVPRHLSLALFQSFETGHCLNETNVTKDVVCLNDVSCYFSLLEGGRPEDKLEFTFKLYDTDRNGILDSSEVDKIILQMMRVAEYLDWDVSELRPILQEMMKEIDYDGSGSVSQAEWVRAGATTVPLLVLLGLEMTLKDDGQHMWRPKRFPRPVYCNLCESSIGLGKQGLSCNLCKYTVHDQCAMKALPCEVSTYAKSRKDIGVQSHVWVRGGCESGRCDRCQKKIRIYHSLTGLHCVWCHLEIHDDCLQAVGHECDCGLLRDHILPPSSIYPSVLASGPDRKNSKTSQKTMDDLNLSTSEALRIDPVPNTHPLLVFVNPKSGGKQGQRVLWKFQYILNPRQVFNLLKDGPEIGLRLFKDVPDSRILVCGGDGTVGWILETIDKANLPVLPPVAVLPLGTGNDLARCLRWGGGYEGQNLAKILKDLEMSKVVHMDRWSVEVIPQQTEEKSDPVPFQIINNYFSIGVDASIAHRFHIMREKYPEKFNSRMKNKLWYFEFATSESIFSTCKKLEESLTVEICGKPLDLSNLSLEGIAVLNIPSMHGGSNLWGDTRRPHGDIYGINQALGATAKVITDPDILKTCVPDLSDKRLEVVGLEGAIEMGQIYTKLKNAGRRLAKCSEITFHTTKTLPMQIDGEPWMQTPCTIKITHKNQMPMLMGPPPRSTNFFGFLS

The target of one assay is DGKζ (Homo sapiens (Human), UniProt Q13574). As to the kind of experiment: Assay 1 or 2: In Vitro DGK Inhibition Assays (DGKζ LIPGLO, extruded liposome). In kind it is biochemical. The following applies: extruded liposome substrate, 150 μM ATP. Here is the method:
(§1) Assay 1: In Vitro DGK Inhibition Assays—Method A
(§2) The DGKα and DGKζ reactions were performed using either extruded liposome (DGKα and DGKζ LIPGLO assays) or detergent/lipid micelle substrate (DGKα and DGKζ assays). The reactions were carried out in 50 mM MOPS pH 7.5, 100 mM NaCl, 10 mM MgCl2, 1 μM CaCl2), and 1 mM DTT (assay buffer). The reactions using a detergent/lipid micelle substrate also contained 50 mM octyl B-D-glucopyranoside. The lipid substrate concentrations were 11 mM PS and 1 mM DAG for the detergent/lipid micelle reactions. The lipid substrate concentrations were 2 mM PS, 0.25 mM DAG, and 2.75 mM PC for the extruded liposome reactions. The reactions were carried out in 150 μM ATP. The enzyme concentrations for the DGKα and DGKζ were 5 nM
(§3) The compound inhibition studies were carried out as follows: 50 nL droplets of each test compound (top concentration 10 mM with 11 point, 3-fold dilution series for each compound) solubilized in DMSO were transferred to wells of a white 1536 well plate (Corning 3725). A 5 mL enzyme/substrate solution at 2× final reaction concentration was prepared by combining 2.5 mL 4× enzyme solution (20 nM DGKα or DGKζ (prepared as described below) in assay buffer) and 2.5 mL of either 4× liposome or 4× detergent/lipid micelle solution (compositions described below) and incubated at room temperature for 10 minutes. Next, 1 μL 2× enzyme/substrate solution was added to wells containing the test compound and reactions were initiated with the addition of 1 μL 300 uM ATP. The reactions were allowed to proceed for 1 hr, after which 2 μL Glo Reagent (Promega V9101) was added and incubated for 40 minutes. Next, 4 μL Kinase Detection Reagent was added and incubated for 30 minutes. Luminescence was recorded using an EnVision microplate reader. […] The compounds were evaluated at 11 concentrations to determine IC50.
(§4) The lipid composition was 5 mol % DAG (Avanti 8008110), 40 mol % PS (Avanti 840035P), and 55 mol % PC (Avanti 850457) at a total lipid concentration of 15.2 mg/mL for the 4× liposome solution. The PC, DAG, and PS were dissolved in chloroform, combined, and dried in vacuo to a thin film. The lipids were hydrated to 20 mM in 50 mM MOPS pH 7.5, 100 mM NaCl, 5 mM MgCl2, and were freeze-thawed five times. The lipid suspension was extruded through a 100 nm polycarbonate filter eleven times. […] The liposome preparation was stored at 4° C. for as long as four weeks.
(§5) Baculovirus amplification was achieved using infected Sf9 cells at 1:1500 virus/cell ratios, and grown for 65 hours at 27° C. post-transfection.
(§6) The cells were lysed using nitrogen cavitation method with a nitrogen bomb (Parr Instruments), and the lysates were clarified by centrifugation. […] The three steps column chromatography included nickel affinity resin capture (i.e. HisTrap FF crude, GE Healthcare), followed by size exclusion chromatography (i.e. HiLoad 26/600 Superdex 200 prep grade, GE Healthcare for DGK-alpha, and HiPrep 26/600 Sephacryl S 300_HR, GE Healthcare for DGK-zeta). The third step was ion exchange chromatography, and differed for the two isoforms. DGKα was polished using Q-Sepharose anion exchange chromatography (GE Healthcare). DGKζ was polished using SP Sepharose cation exchange chromatography (GE Healthcare). The proteins were delivered at concentrations of ≥2 mg/mL. The formulation buffers were identical for both proteins: 50 mM Hepes, pH 7.2, 500 mM NaCl, 10% v/v glycerol, 1 mM TCEP, and 0.5 mM EDTA.
Assay 2: In Vitro DGK Inhibition Assays—Method B
The DGKα and DGKζ reactions were performed using either extruded liposome (DGKα and DGKζ LIPGLO assays) or detergent/lipid micelle substrate (DGKα and DGKζ assays).
Take `C[C@@H]1CN(c2cc(=O)n(C)c3ccc(C#N)nc23)[C@@H](C)CN1C(C(=O)N1CCCCC1)c1ccc(F)cc1` (single isomer, unassigned) [Example 11]: the IC50 – broadly, the midpoint of a concentration-inhibition curve – came out at 1.22 µM.
Same read-out and setting: the result for `C[C@@H]1CN(c2cc(=O)n(C)c3ccc(C#N)nc23)[C@@H](C)CN1C(CC(=O)NC(C)(C)C)c1ccc(F)cc1` (single isomer, unassigned) [Example 33] reads 11.1 µM.

The next assay concerns Human whole blood IFN-γ. The experiment in a line: Assay 10: Human Whole Blood IFN-γ Assay. It counts as cell-based. As to conditions: Homo sapiens, 24 h, anti-CD3 and anti-CD28 stimulation, 100% = 3 μM reference compound, read-out: INFg Whole Blood Normalized Agonist EC50. Here is the method: Assay 10: Human Whole Blood IFN-γ Assay
Human venous whole blood (22.5 μL per well), obtained from healthy donors, was pre-treated with compounds for one hour at 37° C. in a humidified 95% air/5% CO2 incubator. The blood was stimulated with 2.5 μL anti-human CD3 and anti-CD28 mAb at a final concentration of 1 μg/mL each for 24 hours at 37° C. IFN-7 in the supernatants was measured using AlphLISA kit (Cat #AL217).
As for `C[C@@H]1CN(c2cc(=O)n(C)c3ccc(C#N)nc23)[C@@H](C)CN1C(C(=O)O)c1ccc(F)cc1` (single isomer, unassigned) [Example 10], the EC50 (usually the concentration needed to bring the measured effect to its halfway point) was 20 µM.
Take `CC(C(=O)NC1CCCC1)N1C[C@H](C)N(c2cc(=O)n(C)c3ccc(C#N)nc23)C[C@H]1C` (single isomer, unassigned) [Example 43]: the EC50 is 20 µM.
On the same count and under the same terms, then `C[C@@H]1CN(c2cc(=O)n(C)c3ccc(C#N)nc23)[C@@H](C)CN1C(c1ccc(F)cc1)P(C)(C)=O` (single isomer, unassigned) [Example 49], with 20 µM; and `COC(=O)C(c1ccc(F)cc1)N1C[C@H](C)N(c2cc(=O)n(C)c3ccc(C#N)nc23)C[C@H]1C` (stereo partly drawn) [Example 7, Methyl 2-((2R,5S)-4-(6-cyano-1-methyl-2-oxo-1,2-dihydro-1,5-naphthyridin-4-yl)-2,5-dimethylpiperazin-1-yl)-2-(4-fluorophenyl)acetate], with 0.1 µM; and `C[C@@H]1CN(c2cc(=O)n(C)c3ccc(C#N)nc23)[C@@H](C)CN1C(C(N)=O)c1ccc(F)cc1` (stereo partly drawn) [Example 13, 2-((2R,5S)-4-(6-cyano-1-methyl-2-oxo-1,2-dihydro-1,5-naphthyridin-4-yl)-2,5-dimethylpiperazin-1-yl)-2-(4-fluorophenyl)acetamide], with 20 µM.
With `C[C@@H]1CN(c2cc(=O)n(C)c3ccc(C#N)nc23)[C@@H](C)CN1C(C(=O)N(C)C)c1ccc(F)cc1` (stereo partly drawn) [Example 23, 2-((2R,5S)-4-(6-cyano-1-methyl-2-oxo-1,2-dihydro-1,5-naphthyridin-4-yl)-2,5-dimethylpiperazin-1-yl)-2-(4-fluorophenyl)-N,N-dimethylacetamide], the EC50 worked out at 20 µM.
Same read-out and setting: then `C[C@@H]1CN(c2cc(=O)n(C)c3ccc(C#N)nc23)[C@@H](C)CN1C(C(=O)NCCO)c1ccc(F)cc1` (stereo partly drawn) [Example 27, 2-((2R,5S)-4-(6-cyano-1-methyl-2-oxo-1,2-dihydro-1,5-naphthyridin-4-yl)-2,5-dimethylpiperazin-1-yl)-2-(4-fluorophenyl)-N-(2-hydroxyethyl)acetamide], with 1.54 µM; and `CC(C(=O)Nc1cnn(C)c1)N1C[C@H](C)N(c2cc(=O)n(C)c3ccc(C#N)nc23)C[C@H]1C` (stereo partly drawn) [Example 45, 2-((2R,5S)-4-(6-cyano-1-methyl-2-oxo-1,2-dihydro-1,5-naphthyridin-4-yl)-2,5-dimethylpiperazin-1-yl)-N-(1-methyl-1H-pyrazol-4-yl)propanamide], with 20 µM; and `CC(C(=O)NC1CC1)N1C[C@H](C)N(c2cc(=O)n(C)c3ccc(C#N)nc23)C[C@H]1C` (stereo partly drawn) [Example 47, 2-((2R,5S)-4-(6-cyano-1-methyl-2-oxo-1,2-dihydro-1,5-naphthyridin-4-yl)-2,5-dimethylpiperazin-1-yl)-N-cyclopropylpropanamide], with 20 µM.

The assay is the same for the next values; noted with them: anti-CD3 and anti-CD28 stimulation, 24 hours, 100% = 3 μM reference compound, read-out: INFg Whole Blood Normalized Agonist EC50.
Regarding `CC(C)OC(=O)C(c1ccc(F)cc1)N1C[C@H](C)N(c2cc(=O)n(C)c3ccc(C#N)nc23)C[C@H]1C` (single isomer, unassigned) [Example 1], the EC50 was 0.61 µM.
Still for that read-out and setting: then `COC(=O)CC(c1ccc(F)cc1)N1C[C@H](C)N(c2cc(=O)n(C)c3ccc(C#N)nc23)C[C@H]1C` (single isomer, unassigned) [Example 31], with 0.15 µM; and `COC(=O)CC(c1ccc(F)cc1)N1C[C@H](C)N(c2cc(=O)n(C)c3ccc(C#N)nc23)C[C@H]1C` (single isomer, unassigned) [Example 32], with 1.81 µM; and `CC(C(=O)NC1CCCC1)N1C[C@H](C)N(c2cc(=O)n(C)c3ccc(C#N)nc23)C[C@H]1C` (single isomer, unassigned) [Example 44], with 20 µM.
The same measure, in the same setting: the result for `C[C@@H]1CN(c2cc(=O)n(C)c3ccc(C#N)nc23)[C@@H](C)CN1C(c1ccc(F)cc1)P(C)(C)=O` (single isomer, unassigned) [Example 50] reads 20 µM; that for `C[C@@H]1CN(c2cc(=O)n(C)c3ccc(C#N)nc23)[C@@H](C)CN1C(C(N)=O)c1ccc(F)cc1` (stereo partly drawn) [Example 14, 2-((2R,5S)-4-(6-cyano-1-methyl-2-oxo-1,2-dihydro-1,5-naphthyridin-4-yl)-2,5-dimethylpiperazin-1-yl)-2-(4-fluorophenyl)acetamide], 20 µM.
For the molecule `C[C@@H]1CN(c2cc(=O)n(C)c3ccc(C#N)nc23)[C@@H](C)CN1C(C(=O)N1CCCC1)c1ccc(F)cc1` (stereo partly drawn) [Example 21, 8-((2S,5R)-4-(1-(4-fluorophenyl)-2-oxo-2-(pyrrolidin-1-yl)ethyl)-2,5-dimethylpiperazin-1-yl)-5-methyl-6-oxo-5,6-dihydro-1,5-naphthyridine-2-carbonitrile], the EC50 was 2.56 µM.
Still for that read-out and setting: then `C[C@@H]1CN(c2cc(=O)n(C)c3ccc(C#N)nc23)[C@@H](C)CN1C(C(=O)N1CCCC1)c1ccc(F)cc1` (stereo partly drawn) [Example 22, 8-((2S,5R)-4-(1-(4-fluorophenyl)-2-oxo-2-(pyrrolidin-1-yl)ethyl)-2,5-dimethylpiperazin-1-yl)-5-methyl-6-oxo-5,6-dihydro-1,5-naphthyridine-2-carbonitrile], with 9.03 µM; and `C[C@@H]1CN(c2cc(=O)n(C)c3ccc(C#N)nc23)[C@@H](C)CN1C(C(=O)N(C)C)c1ccc(F)cc1` (stereo partly drawn) [Example 24, 2-((2R,5S)-4-(6-cyano-1-methyl-2-oxo-1,2-dihydro-1,5-naphthyridin-4-yl)-2,5-dimethylpiperazin-1-yl)-2-(4-fluorophenyl)-N,N-dimethylacetamide], with 20 µM; and `CNC(=O)C(c1ccc(F)cc1)N1C[C@H](C)N(c2cc(=O)n(C)c3ccc(C#N)nc23)C[C@H]1C` (stereo partly drawn) [Example 25, 2-((2R,5S)-4-(6-cyano-1-methyl-2-oxo-1,2-dihydro-1,5-naphthyridin-4-yl)-2,5-dimethylpiperazin-1-yl)-2-(4-fluorophenyl)-N-methylacetamide], with 5.12 µM.
`CC(C(=O)Nc1cnn(C)c1)N1C[C@H](C)N(c2cc(=O)n(C)c3ccc(C#N)nc23)C[C@H]1C` (stereo partly drawn) [Example 46, 2-((2R,5S)-4-(6-cyano-1-methyl-2-oxo-1,2-dihydro-1,5-naphthyridin-4-yl)-2,5-dimethylpiperazin-1-yl)-N-(1-methyl-1H-pyrazol-4-yl)propanamide]: the EC50 was 20 µM.
Still for that read-out and setting: the result for `CC(C(=O)NC1CC1)N1C[C@H](C)N(c2cc(=O)n(C)c3ccc(C#N)nc23)C[C@H]1C` (stereo partly drawn) [Example 48, 2-((2R,5S)-4-(6-cyano-1-methyl-2-oxo-1,2-dihydro-1,5-naphthyridin-4-yl)-2,5-dimethylpiperazin-1-yl)-N-cyclopropylpropanamide] reads 20 µM.

For another assay, the target named is DGKα (Homo sapiens (Human), UniProt P23743). As to the kind of experiment: Assay 1: In Vitro DGK Inhibition Assays, Method A (DGKα LIPGLO, extruded liposome). In kind it is biochemical. The following applies: extruded liposome substrate, 150 μM ATP. Here is the method:
as §1, §2, §3, §4, §5, §6
Regarding `C[C@@H]1CN(c2cc(=O)n(C)c3ccc(C#N)nc23)[C@@H](C)CN1C(C(=O)N1CCCCC1)c1ccc(F)cc1` (single isomer, unassigned) [Example 11], the IC50 was 0.51 µM.
On the same count and under the same terms, the result for `C[C@@H]1CN(c2cc(=O)n(C)c3ccc(C#N)nc23)[C@@H](C)CN1C(CC(=O)NC(C)(C)C)c1ccc(F)cc1` (single isomer, unassigned) [Example 33] reads 6.36 µM.
